Reference: patent US20220160652A1, “USE OF VITAMIN K IN COMBINATION WITH ANTICOAGULANTS” (KAYDENCE PHARMA AS, priority 2019, published 2022)
Entries after “also recorded” stand apart in the source; their conditions may differ.

How the values were obtained:
VSMCs [1] = experiment: Warfarin-induced oxidative stress in VSMCs, effect of vitamin K2 (DCFDA); format: cell-based; details: 5 hours incubation
Experimental: It is known that the level of reactive oxygen species in cells can be measured by measuring the conversion of 2′,7′—dichlorofluorescein diacetate (DCFDA) to the fluorescent dye 2′,7′-dichlorofluorescein (DCF). The fluorescence generated by cells subjected to DCFDA is directly proportional to the amount of oxidized DCFDA to DCF.
This study was performed to determine if vitamin K2 (MK-7) reduces warfarin-induced oxidative stress. To perform the study, VSMCs (10,000 cells/well) were plated in a 96-well plate and left to adhere overnight. Next, cells were incubated for 24 hours with 100 μM warfarin. The next day, […] DCFDA was added to the cells for 1 hour. The cells were then incubated for 5 hours with normal medium (baseline), vitamin K2 (MK-7), or warfarin. Fluorescence was measured and fluorescence intensity was normalized for cell count.

VSMCs [2] = experiment: Vitamin K2 (MK-7) effect on ATP over time; format: cell-based; details: 10 μM, indicated time points
Experimental: This study was performed to investigate the effect of vitamin K2 (MK-7) on ATP over time. It is known that all cells, including VSMCs, proliferate. The term cell growth is used in the contexts of biological cell development and cell division (reproduction). When used in the context of cell division, it refers to growth of cell populations, where a cell, known as the “mother cell,” grows and divides to produce two “daughter cells” (M phase). When used in the context of cell development, the term refers to increase in cytoplasmic and organelle volume (G1 phase), as well as increase in genetic material (G2 phase) following the replication during S phase. When a cell is quiescent, this phase is called G0. Cell populations go through a particular type of exponential growth called doubling. Each generation of cells should be twice as numerous as the previous generation. However, the number of generations only gives a maximum figure as not all cells survive in each generation.
To perform this study, first, VSCMs (5000 cells/well) were plated in 96-well plates and left to adhere overnight. […] Next, ATP was measured using mammalian lysis buffer for 5 minutes, after which 50 μL ATP substrate solution was added to the wells and incubated for 10 minutes in a dark environment. Finally, medium was transferred to a white plate to measure luminescence.

[3] = system: transgenic Ren-2 rats [TGR(mREN-2)27]; experiment: T-TAS thrombus formation in whole blood of treated TGR (Ren-2) rats; format: in vivo, rat; details: vitamin K2 (MK-7) added
Experimental: This experiment was conducted in order to evaluate the effects of vitamin K2 (MK-7) on the anticoagulant activity of the new oral anticoagulants (NOAC) rivaroxaban and dabigatran using the T-TAS Total Thrombus-formation Analysis System. The T-TAS Total Thrombus-formation Analysis System is a microchip-based flow chamber system capable of evaluating whole-blood thrombogenicity. It is a useful tool in monitoring the efficacy of anticoagulants on thrombus formation and predicting the risk of bleeding complications. […] Four days before the start of the treatment, the first part of animals' body weight and food intake was measured in selected representative three cages (rats n=9) to calculate the appropriate amount of tested compounds required for addition to the diet to obtain the dosing indicated in Table 1. […] The body mass of the rats was measured at the beginning and at the end of treatment. At the beginning and at the end of treatment, the food intake per day was measured in representative group of animals to monitor the daily dosing of tested compounds (per kg of body mass). The thrombus formation in vitro was measured in whole blood using a microchip-based flow chamber system according to manufacturers' protocol (Total Thrombus-formation Analyser System, T-TAS; Fujimori Kogyo Co., Ltd., Tokyo, Japan). […]

VSMCs [4] = experiment: Vitamin K2 (MK-7) and hypoxia: ATP on co-treatment with CoCl2; format: cell-based; details: co-treatment CoCl2 100 μM and 10 μM, 24 hours
Experimental: This study was performed to investigate whether vitamin K2 (MK-7) can prevent the hypoxia-induced decrease in ATP (CoCl2 treatment, thereby stabilization of HIF1a). To perform this study, VSMCs were co-treated with CoCl2 and vitamin K2 (MK-7).
First, VSCMs (5000 cells/well) were plated in 96-well plates and left to adhere overnight. Next, cells were incubated for 24 hours with either CoCl2 (100 μM) or CoCl2 and vitamin K2 (MK-7) or UQ10 together (100 and 10 μM, respectively). Next, ATP was measured and corrected for cell numbers. CoCl2 values were set as relative to CoCl2 co-treated with vitamin K2 (MK-7) or UQ10. Hoechst was added to correct for cell number (1 μg/mL). Next, ATP was measured using mammalian lysis buffer for 5 minutes after which 50 μL ATP substrate solution was added to the wells and incubated for 10 minutes in a dark environment. Finally, medium was transferred to a white plate to measure luminescence.

[5] = system: human vascular smooth muscle cells (hVSMCs); experiment: Vitamin K2 (MK-7) and ATP pathway: ATP luminescence with warfarin; format: cell-based; details: warfarin 50 μM with vitamin K2 (MK-7) 10 μM, 24 hours
Experimental: This study was performed in order to determine the effect of vitamin K2 (MK-7) on warfarin-induced oxidative stress in muscles. To perform this study, human vascular smooth muscle cells (hVSMCs; 5,000 cells/well) were plated in 96-well dark plates and left to adhere overnight. Next, cells were incubated for 24 hours with either vehicle only (as blank control), warfarin (10 or 50 μM), vitamin K2 (MK-7) (10 μM), or a combination of warfarin (50 μM) and vitamin K2 (MK-7) (10 μM). Hoechst was added to correct for cell number (1 μg/mL). Next, ATP was measured using mammalian lysis buffer for 5 minutes after which 50 μL ATP substrate solution was added to the wells and incubated for 10 minutes in a dark environment. Finally, medium was transferred to a white plate to measure luminescence.

Sprague-Dawley rats = experiment: T-TAS thrombus formation in whole blood of treated Sprague-Dawley rats; format: in vivo, rat; details: added to dabigatran and to rivaroxaban
Experimental: This experiment was conducted in order to evaluate the effects of vitamin K2 (MK-7) on the anticoagulant activity of the new oral anticoagulants (NOAC) rivaroxaban and dabigatran using the T-TAS Total Thrombus-formation Analysis System. The T-TAS Total Thrombus-formation Analysis System is a microchip-based flow chamber system capable of evaluating whole-blood thrombogenicity. It is a useful tool in monitoring the efficacy of anticoagulants on thrombus formation and predicting the risk of bleeding complications. To perform the study, 45 wild-type male Sprague-Dawley and 45 transgenic male Ren-2 rats [TGR(mREN-2)27] at the age of 10-11 weeks at the beginning of the treatment period were purchased from animal facility IKEM-CEM Institute of Clinical and Experimental Medicine (Prague, Czech Republic). All animals in the experiment were housed in individually ventilated cages (2-3 rats per cage) and kept in the animal rooms of JCET at a relative humidity of 55±10%, a temperature of 22±2 ° C., and a light cycle of 7 AM to 7 PM. The rats had free access to food and water. After delivery, animals were randomly divided into 10 experimental groups (5 or 10 rats per group), as indicated below in Table 1. Four days before the start of the treatment, the first part of animals' body weight and food intake was measured in selected representative three cages (rats n=9) to calculate the appropriate amount of tested compounds required for addition to the diet to obtain the dosing indicated in Table 1. It was estimated that food intake was approximately 30 g of chow per rat per day. […] The body mass of the rats was measured at the beginning and at the end of treatment. At the beginning and at the end of treatment, the food intake per day was measured in representative group of animals to monitor the daily dosing of tested compounds (per kg of body mass). The thrombus formation in vitro was measured in whole blood using a microchip-based flow chamber system according to manufacturers' protocol (Total Thrombus-formation Analyser System, T-TAS; Fujimori Kogyo Co., Ltd., Tokyo, Japan). […]

CC(C)=CCC/C(C)=C/CC/C(C)=C/CC/C(C)=C/CC/C(C)=C/CC/C(C)=C/CC/C(C)=C/CC1=C(C)C(=O)c2ccccc2C1=O [vitamin K2 (MK-7)]
warfarin-induced oxidative stress in VSMCs (VSMCs [1]; after 24 hours 100 μM warfarin): counteracted the warfarin-induced oxidative stress; also recorded: counteracts intracellular oxidative stress
normal oxidative stress in VSMCs (VSMCs [1]; normal conditions): reduced not only normal oxidative stress; also recorded: counteracts intracellular oxidative stress
ATP production in VSMCs over time (VSMCs [2]): stimulated ATP production in VSMCs
modification of the thrombus formation inhibition by dabigatran and rivaroxaban [3]: did not modify this effect significantly
prevention of hypoxia-induced (CoCl2) decrease in ATP generation (VSMCs [4]): could (partially) prevent the decreased ATP generation
oxidative stress induced by warfarin [5]: counteracted the oxidative stress induced by warfarin
formation of a clot (AUC) on addition of vitamin K2 (MK-7) (Sprague-Dawley rats): did not prevent the formation of a clot
increase of occlusion Time (OT) on addition of vitamin K2 (MK-7) (Sprague-Dawley rats): 5-7%
